Source: ChEMBL document CHEMBL3885881, “DrugMatrix”

Species on record: Rattus norvegicus
Assay: DrugMatrix - Regimen: Daily Repeat
Type: toxicity, organism-based, Sprague-Dawley
Design: regimen Daily Repeat, gender Male, age 6-8 weeks
Conditions: in vivo, po, 1868 mg/kg, route oral GAVAGE, dose level High, vehicle .5 % CMC; for ABSOLUTE BASOPHIL / ABSOLUTE EOSINOPHIL / ABSOLUTE LYMPHOCYTE / ABSOLUTE MONOCYTE / ABSOLUTE SEGMENTED NEUTROPHIL / BASOPHIL / EOSINOPHIL / ERYTHROCYTE COUNT / HEMATOCRIT / HEMOGLOBIN / LEUKOCYTE COUNT / LYMPHOCYTE / MEAN CORPUSCULAR HEMOGLOBIN / MEAN CORPUSCULAR HEMOGLOBIN CONCENTRATION / MEAN CORPUSCULAR VOLUME / MONOCYTE / NEUTROPHIL / NUCLEATED RED BLOOD CELLS / PLATELET COUNT: tissue Blood
[1] = 72 h, tissue Plasma, time 3 day
[2] = 120 h, tissue Plasma, time 5 day

CC(=O)OCc1ccccc1 [E1501]
ABSOLUTE BASOPHIL (72 h, time 3 day): 0 CELLS/uL
ABSOLUTE EOSINOPHIL (72 h, time 3 day): 53 CELLS/uL
ABSOLUTE LYMPHOCYTE (72 h, time 3 day): 16547 CELLS/uL
ABSOLUTE MONOCYTE (72 h, time 3 day): 404 CELLS/uL
ABSOLUTE SEGMENTED NEUTROPHIL (72 h, time 3 day): 3196 CELLS/uL
BASOPHIL (72 h, time 3 day): 0%
EOSINOPHIL (72 h, time 3 day): 0.5%
ERYTHROCYTE COUNT (72 h, time 3 day): 6.19 x10E6/uL
HEMATOCRIT (72 h, time 3 day): 37.45%
HEMOGLOBIN (72 h, time 3 day): 13.25 G/DL
LEUKOCYTE COUNT (72 h, time 3 day): 20.2 x10E3/uL
LYMPHOCYTE (72 h, time 3 day): 75.5%
MEAN CORPUSCULAR HEMOGLOBIN (72 h, time 3 day): 21.45 pg
MEAN CORPUSCULAR HEMOGLOBIN CONCENTRATION (72 h, time 3 day): 35.4 G/DL
MEAN CORPUSCULAR VOLUME (72 h, time 3 day): 60.6 fL
MONOCYTE (72 h, time 3 day): 2%
NEUTROPHIL (72 h, time 3 day): 22%
NUCLEATED RED BLOOD CELLS (72 h, time 3 day): 0 /100WBC
PLATELET COUNT (72 h, time 3 day): 1224 x10E3/uL
ALANINE AMINOTRANSFERASE [1]: 60 u/L
ALBUMIN [1]: 4.7 G/DL
ALKALINE PHOSPHATASE [1]: 462 u/L
ASPARTATE AMINOTRANSFERASE [1]: 177 u/L
BLOOD UREA NITROGEN [1]: 54 mg/dL
CARBON DIOXIDE [1]: 24 mmol/L
CHLORIDE [1]: 92.5 MEQ/L
CHOLESTEROL [1]: 57 mg/dL
CREATININE [1]: 0.49 mg/dL
GLUCOSE [1]: 276 mg/dL
LACTATE DEHYDROGENASE [1]: 270.5 u/L
LIPASE [1]: 9.5 u/L
PHOSPHORUS [1]: 16.1 mg/dL
POTASSIUM [1]: 5.06 MEQ/L
SODIUM [1]: 143.6 MEQ/L
TOTAL BILIRUBIN [1]: 0.25 mg/dL
TOTAL PROTEIN [1]: 7 G/DL
URIC ACID [1]: 2 mg/dL
ABSOLUTE BASOPHIL (120 h, time 5 day): 0 CELLS/uL
ABSOLUTE EOSINOPHIL (120 h, time 5 day): 243.33 CELLS/uL
ABSOLUTE LYMPHOCYTE (120 h, time 5 day): 9225.33 CELLS/uL
ABSOLUTE MONOCYTE (120 h, time 5 day): 248.33 CELLS/uL
ABSOLUTE SEGMENTED NEUTROPHIL (120 h, time 5 day): 783 CELLS/uL
BASOPHIL (120 h, time 5 day): 0%
EOSINOPHIL (120 h, time 5 day): 2.33%
ERYTHROCYTE COUNT (120 h, time 5 day): 6.51 x10E6/uL
HEMATOCRIT (120 h, time 5 day): 38.67%
HEMOGLOBIN (120 h, time 5 day): 14.03 G/DL
LEUKOCYTE COUNT (120 h, time 5 day): 10.5 x10E3/uL
LYMPHOCYTE (120 h, time 5 day): 88%
MEAN CORPUSCULAR HEMOGLOBIN (120 h, time 5 day): 21.53 pg
MEAN CORPUSCULAR HEMOGLOBIN CONCENTRATION (120 h, time 5 day): 36.3 G/DL
MEAN CORPUSCULAR VOLUME (120 h, time 5 day): 59.37 fL
MONOCYTE (120 h, time 5 day): 2.33%
NEUTROPHIL (120 h, time 5 day): 7.33%
NUCLEATED RED BLOOD CELLS (120 h, time 5 day): 0 /100WBC
PLATELET COUNT (120 h, time 5 day): 934.67 x10E3/uL
ALANINE AMINOTRANSFERASE [2]: 127 u/L
ALBUMIN [2]: 4.53 G/DL
ALKALINE PHOSPHATASE [2]: 336 u/L
ASPARTATE AMINOTRANSFERASE [2]: 386 u/L
BLOOD UREA NITROGEN [2]: 22 mg/dL
CARBON DIOXIDE [2]: 30 mmol/L
CHLORIDE [2]: 99.67 MEQ/L
CHOLESTEROL [2]: 65 mg/dL
CREATININE [2]: 0.28 mg/dL
GLUCOSE [2]: 167 mg/dL
LACTATE DEHYDROGENASE [2]: 574 u/L
LIPASE [2]: 9.67 u/L
PHOSPHORUS [2]: 13.07 mg/dL
POTASSIUM [2]: 6.24 MEQ/L
SODIUM [2]: 148.47 MEQ/L
TOTAL BILIRUBIN [2]: 0.17 mg/dL
URIC ACID [2]: 1.83 mg/dL
ABSOLUTE BASOPHIL ([…], time 11 day): 0 CELLS/uL
ABSOLUTE EOSINOPHIL ([…], time 11 day): 0 CELLS/uL
ABSOLUTE LYMPHOCYTE ([…], time 11 day): 4840 CELLS/uL
ABSOLUTE MONOCYTE ([…], time 11 day): 440 CELLS/uL
ABSOLUTE SEGMENTED NEUTROPHIL ([…], time 11 day): 3520 CELLS/uL
BASOPHIL ([…], time 11 day): 0%
EOSINOPHIL ([…], time 11 day): 0%
ERYTHROCYTE COUNT ([…], time 11 day): 6.27 x10E6/uL
HEMATOCRIT ([…], time 11 day): 37.6%
HEMOGLOBIN ([…], time 11 day): 13.8 G/DL
LEUKOCYTE COUNT ([…], time 11 day): 8.8 x10E3/uL
LYMPHOCYTE ([…], time 11 day): 55%
MEAN CORPUSCULAR HEMOGLOBIN ([…], time 11 day): 22 pg
MEAN CORPUSCULAR HEMOGLOBIN CONCENTRATION ([…], time 11 day): 36.7 G/DL
MEAN CORPUSCULAR VOLUME ([…], time 11 day): 60 fL
MONOCYTE ([…], time 11 day): 5%
NEUTROPHIL ([…], time 11 day): 40%
NUCLEATED RED BLOOD CELLS ([…], time 11 day): 0 /100WBC
